Holding throughout (type): cell-based
For assay [1], the system named is HT-29 (colorectal carcinoma). As to the kind of experiment: In vitro cytotoxic activity (GI50), method (b), propidium iodide. The following applies: Homo sapiens, 96 hrs. On the procedure:
(§1) Row H was filled wih medium only (150 μL, negative control-medium).

Assay [2] has as its system PC-3 (prostate adenocarcinoma). The description is as above. To be noted: 96 hrs. Here is the method:
as §1

Assay [3] has as its system MDA-MB-231 (mammary gland adenocarcinoma). Described as above. The following applies: Homo sapiens, 96 hrs. On the procedure:
as §1

Another assay concerns SF268 (CNS). Described as above. To be noted: Homo sapiens, SF-268, 96 hrs. On the procedure:
as §1

Assay [4] deals with HT-29, SF-268, PC-3, MDA-MB-231. As to the kind of experiment: Average GI50 over the four cell lines, method (b). To be noted: for GI50: values > 30 not considered; for anticancer activity compared with Compound 1: four cell lines. Here is the method: as §1

By GI50 is commonly meant the concentration that inhibits growth by half. High values mean lower sensitivity of the cells, low ones greater sensitivity of the cells. For `CCN1c2c(O)cccc2C(=O)N(C/C=C(\C)CC/C=C(\C)CCC=C(C)C)c2cc(O)cc(O)c21` [Compound 14, 10-farnesyl-4,6,8-trihydroxy-5-ethyl-5,10-dihydro-dibenzo[b,e][1,4]diazepin-11-one], the GI50 in assay [1] was 2.04 µM; in assay [2], 1.15 µM; in assay [3], 2.16 µM; in the assay on SF268 (CNS), 0.76 µM; in assay [4] it was 1.53 µM.

`CC(C)=CCCC1(C)OC1CC/C(C)=C/CN1C(=O)c2cccc(O)c2Nc2c(O)cc(O)cc21` (stereo not drawn) [Compound 17, 10-(3,7,11-trimethyl-6,7-epoxydodeca-2,10-dienyl)-4,6,8-trihydroxy-5,10-dihydro-dibenzo[b,e][1,4]diazepin-11-one]: the 50% growth inhibitory concentration (GI50) in assay [1] was over 30 µM; in assay [2], 18.7 µM; in assay [3], over 30 µM; in the assay on SF268 (CNS) it was 13.4 µM; in assay [4], 16 µM.

With `C/C(=C\CN1C(=O)c2cccc(O)c2Nc2c(O)cc(O)cc21)CC/C=C(\C)CCC1OC1(C)C` (stereo not drawn) [Compound 18], the GI50 in assay [1] was over 30 µM; in assay [2], over 30 µM; in assay [3], over 30 µM; in the assay on SF268 (CNS), 7.45 µM.

Take `CCCN1c2c(O)cccc2C(=O)N(C/C=C(\C)CC/C=C(\C)CCC=C(C)C)c2cc(O)cc(O)c21` [Compound 63, 10-farnesyl-4,6,8-trihydroxy-5-n-propyl-5,10-dihydro-dibenzo[b,e][1,4]diazepin-11-one]: the 50% growth inhibitory concentration (GI50) in assay [1] was determined as 2.57 µM; in assay [2], 1.25 µM; in assay [3], 2.27 µM; in the assay on SF268 (CNS) it was 0.89 µM; in assay [4], 1.74 µM. In assay [4], the “anticancer activity compared with Compound 1” value was “better anticancer activity than Compound 1”.

As to `CCCCN1c2c(O)cccc2C(=O)N(C/C=C(\C)CC/C=C(\C)CCC=C(C)C)c2cc(O)cc(O)c21` [Compound 64, 10-farnesyl-4,6,8-trihydroxy-5-n-butyl-5,10-dihydro-dibenzo[b,e][1,4]diazepin-11-one], the GI50 in assay [1] turned out to be 2.5 µM; in assay [2] it was 1.14 µM; in assay [3], 1.39 µM; in the assay with SF268 (CNS) it was 0.56 µM; in assay [4] it was 1.4 µM. In addition, the “anticancer activity compared with Compound 1” value in assay [4] was “better anticancer activity than Compound 1”.

Regarding `CCCCCCN1c2c(O)cccc2C(=O)N(C/C=C(\C)CC/C=C(\C)CCC=C(C)C)c2cc(O)cc(O)c21` [Compound 67, 10-farnesyl-4,6,8-trihydroxy-5-n-hexyl-5,10-dihydro-dibenzo[b,e][1,4]diazepin-11-one], the GI50 in assay [1] worked out at 2.44 µM; in assay [2], 1.33 µM; in assay [3] it was 1.92 µM; in the assay with SF268 (CNS), 0.53 µM; in assay [4], 1.55 µM. The “anticancer activity compared with Compound 1” value in assay [4] was “better anticancer activity than Compound 1”.

Turning to `CCC(C)N1c2c(O)cccc2C(=O)N(C/C=C(\C)CC/C=C(\C)CCC=C(C)C)c2cc(O)cc(O)c21` (stereo not drawn) [Compound 77, 10-Farnesyl-4,6,8-trihydroxy-5-sec-butyl-5,10-dihydro-dibenzo[b,e][1,4]diazepin-11-one], the GI50 in assay [1] was 13.9 µM; in assay [2] it was 17.1 µM; in assay [3], 5.62 µM; in the assay on SF268 (CNS), 3.31 µM; in assay [4], 9.98 µM.

In the case of `CC(C)CCCC(C)CCCC(C)CCN1C(=O)c2cccc(O)c2N(C)c2c(O)cc(O)cc21` (stereo not drawn) [Compound 78, 10-(3,7,11-trimethyldodecyl)-4,6,8-trihydroxy-5-methyl-5,10-dihydro-dibenzo[b,e][1,4]diazepin-11-one], the GI50 in assay [1] turned out to be 0.29 µM; in assay [2], 0.23 µM; in assay [3], 0.24 µM; in the assay on SF268 (CNS), 0.07 µM; in assay [4], 0.21 µM. Besides, the “anticancer activity compared with Compound 1” value in assay [4] was “better anticancer activity than Compound 1”.

In the case of `COC(C)(CCC=C(C)C)CCC/C(C)=C/CN1C(=O)c2cccc(O)c2N(C)c2c(O)cc(O)cc21` (stereo not drawn) [Compound 80, 10-(7-methoxy-3,7,11-trimethyldodeca-2,10-dienyl)-4,6,8-trihydroxy-5-methyl-5,10-dihydro-dibenzo[b,e][1,4]diazepin-11-one], the GI50 in assay [1] stood at 1.43 µM; in assay [2], 1.8 µM; in assay [3], 1.02 µM; in the assay with SF268 (CNS) it was 0.33 µM; in assay [4] it was 1.14 µM. For the same compound, in assay [4], the “anticancer activity compared with Compound 1” value was “better anticancer activity than Compound 1”.

For `COC(C)(C)CCC/C(C)=C/CC/C(C)=C/CN1C(=O)c2cccc(O)c2Nc2c(O)cc(O)cc21` [Compound 82, 10-(11-methoxy-3,7,11-trimethyl-2,6-dodecadienyl)-4,6,8-trihydroxy-5,10-dihydro-dibenzo[b,e][1,4]diazepin-11-one], the GI50 was 23.6 µM in assay [1]; 13.4 µM in assay [2]; 11 µM in assay [3]; 4.75 µM in the assay with SF268 (CNS); 13.2 µM in assay [4].

Regarding `COC(C)(CCC=C(C)C)CCC/C(C)=C/CN1C(=O)c2cccc(O)c2Nc2c(O)cc(O)cc21` (stereo not drawn) [Compound 83], the GI50 in assay [1] was found to be 19.6 µM; in assay [2], 13.2 µM; in assay [3], 6.71 µM; in the assay on SF268 (CNS), 9.74 µM; in assay [4] it was 12.3 µM.

For `COC(C)(C)CCCC(C)(CCC/C(C)=C/CN1C(=O)c2cccc(O)c2Nc2c(O)cc(O)cc21)OC` (stereo not drawn) [Compound 84, 10-(7,11-dimethoxy-3,7,11-trimethyl-2-dodecenyl)-4,6,8-trihydroxy-5,10-dihydro-dibenzo[b,e][1,4]diazepin-11-one], the concentration for 50% growth inhibition (GI50) in assay [1] was 21.5 µM; in assay [2] it was 16.4 µM; in assay [3] it was 23.5 µM; in the assay on SF268 (CNS) it was 3.49 µM; in assay [4], 16.2 µM.

`CCN1c2c(O)cccc2C(=O)N(C/C=C(\C)CC/C=C(\C)CCCC(C)(C)OC)c2cc(O)cc(O)c21` [Compound 85, 10-(11-methoxy-3,7,11-trimethyl-2,6-dodecadienyl)-4,6,8-trihydroxy-5-ethyl-5,10-dihydro-dibenzo[b,e][1,4]diazepin-11-one]: the GI50 was found to be 1.89 µM in assay [1]; 1.08 µM in assay [2]; 2.19 µM in assay [3]; 1.73 µM in the assay with SF268 (CNS); 1.72 µM in assay [4]. Moreover, the “anticancer activity compared with Compound 1” value in assay [4] is reported as “better anticancer activity than Compound 1”.

Consider `CCN1c2c(O)cccc2C(=O)N(CC=C(C)CCCC(C)(CCCC(C)(C)OC)OC)c2cc(O)cc(O)c21` (stereo not drawn) [Compound 87, 10-(7,11-dimethoxy-3,7,11-trimethyl-2-dodecenyl)-4,6,8-trihydroxy-5-ethyl-5,10-dihydro-dibenzo[b,e][1,4]diazepin-11-one], for which the GI50 was found to be 1.83 µM in assay [1]; 1.39 µM in assay [2]; 2.4 µM in assay [3]; 0.91 µM with SF268 (CNS); 1.63 µM in assay [4]. The “anticancer activity compared with Compound 1” value in assay [4] is reported as “better anticancer activity than Compound 1”.

Take `CC(C)=CCCC(C)(O)CCC/C(C)=C/CN1C(=O)c2cccc(O)c2Nc2c(O)cc(O)cc21` (stereo not drawn) [Compound 89, 10-(7-hydroxy-3,7,11-trimethyldodeca-2,10-dienyl)-4,6,8-trihydroxy-5,10-dihydro-dibenzo[b,e][1,4]diazepin-11-one]: the GI50 was over 30 µM in assay [1]; 13.5 µM in assay [2]; 25.3 µM in assay [3]; 13.7 µM with SF268 (CNS); 17.5 µM in assay [4].

These data come from patent publication US20060079512A1, “Dibenzodiazepinone analogues, processes for their production and their use as pharmaceuticals” (Ecopia BioSciences, Inc., priority 2003, published 2006).
